Measurements as given in patent US10501518B2 (priority 2013, dated 2019).
Read-outs that look alike come from different tables or passages of the source.

How the values were obtained:
rPTHR-1 = biological target: T1, rPTHR-1 (Rattus norvegicus, UniProt P25961); experiment: Washout assay of cAMP response in GR-35 cells; assay type: cell-based; details: for AUC-on / AUC-washout / AUC Ratio: Table 11; for AUC-on: luminescence AUC in the 14 minutes before washout, PTH(1-34), D6, M-PTH(1-34) 0.3 nM, B5 3 nM; for AUC-washout: luminescence AUC in the 120 minutes following washout; for AUC Ratio: ratio of AUC-washout to AUC-on; for cAMP response following washout, in words: rPTHR-1-expressing cells, relative to PTH(1-34)
T1 construct: expressed in transfected cells
T1 sequence (P25961 27-591): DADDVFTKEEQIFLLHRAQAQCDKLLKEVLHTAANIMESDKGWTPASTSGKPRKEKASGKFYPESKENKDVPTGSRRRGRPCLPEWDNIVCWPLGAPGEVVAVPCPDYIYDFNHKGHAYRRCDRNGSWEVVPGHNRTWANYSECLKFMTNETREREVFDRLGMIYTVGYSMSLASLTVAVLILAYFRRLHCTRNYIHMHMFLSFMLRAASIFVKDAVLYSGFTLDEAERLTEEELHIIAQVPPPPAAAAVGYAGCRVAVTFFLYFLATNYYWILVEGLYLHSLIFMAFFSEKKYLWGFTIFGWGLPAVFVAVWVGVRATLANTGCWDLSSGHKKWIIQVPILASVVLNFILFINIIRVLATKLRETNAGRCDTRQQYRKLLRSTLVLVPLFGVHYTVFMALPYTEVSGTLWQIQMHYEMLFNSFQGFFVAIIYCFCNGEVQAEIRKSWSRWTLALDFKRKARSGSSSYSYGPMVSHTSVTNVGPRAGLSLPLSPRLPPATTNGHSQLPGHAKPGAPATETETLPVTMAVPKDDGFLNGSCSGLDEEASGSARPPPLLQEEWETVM
Experimental: FIGS. 11A and 11B present the results of rPTHR-1 washout experiments. Assays of cAMP accumulation were performed using HEK-293-derived cell lines stably transfected to express the luciferase-based cAMP GloSensor™-brand protein along with WT-rPTHR-1 (GR-35 cells). Data are means (±SEM) of n=3 (M-PTH) or n=5 experiments, each performed in quadruplicate. […] Ligand was applied and luminescence was recorded for 14 minutes thereafter. FIG. 11B depicts data for the accumulation of cAMP following ligand wash-out in cells expressing the rPTHR-1. The cells from FIG. 11A were removed from the plate reader at the end of the 14-min “ligand-on” phase, rinsed twice to remove unbound ligand, treated with fresh medium containing luciferin, and luminescence was again recorded for an additional 120 min of “wash-out.” Luminescence was recorded using a PerkinElmer Envision plate reader; cells were preloaded with luciferin for 30 min before ligand addition.
HEK293 cell monolayers expressing rat PTHR-1 (GR35 cells) were treated with ligand in for 14 minutes. This buffer was then discarded, and the cell monolayer was rinsed (2×). Buffer containing luciferin was introduced for 120 minutes. Luminescence response was recorded before and after washout, with luminescence readings recorded every 2 minutes. The area under the curve (AUC) for luminescence response curve was determined using GraphPad Prism. See […] for a graphs depicting the average of n=3 (M-PTH) or n=5 washout experiments. See Table 11 for a description of composite data from n=3 or 5 washout experiments.
Data were processed by using the Microsoft Excel and GraphPad Prism 4.0 software packages. Data from binding and cAMP dose-response assays were analyzed using a sigmoidal dose-response model with variable slope. Washout responses were assessed by quantifying the area under the luminescence response curve (AUC) following washout. Post-washout AUC was normalized by dividing the post-washout AUC by the pre-washout AUC. Paired data sets were statistically compared by using Student's t test (two-tailed) assuming unequal variances for the two sets.

PTH2R/PTH1R = experiment: cAMP response selectivity between PTH2R and PTH1R; assay type: cell-based; details: most selective; for cAMP response PTH1R/PTH2R: Table 17
From the text: Selected analogs containing beta-amino acid substitutions selectively signal through one or the other of the two receptors. Without being bound to any underling biological phenomenon or mechanism, PTHR-2 likely serves an alternative function to PTHR-1 as it is highly expressed in the central nervous system. In contrast, PTHR-1 is highly expressed in bone and kidney, but not in the CNS. The analogs disclosed herein are thus useful as therapeutic compounds that a specific agonists or antagonists of PTHR-1 and PTHR-2.

R^0 form of human PTHR-1 = biological target: T2, R^0 form of human PTHR-1 (Homo sapiens, UniProt Q03431); experiment: Radio-ligand competition binding to R^0 form of human PTHR-1 (COS-7 membranes, 125I-PTH(1-34) tracer, GTPγS); details: for R^0/RG: Table 4, ratio of R^0 to RG IC50, human PTHR-1; for affinity for the R^0 state of hPTHR-1, in words: compared with PTH(1-34)
T2 construct: expressed in transfected cells; host or cells: COS-7
T2 sequence (Q03431 27-593): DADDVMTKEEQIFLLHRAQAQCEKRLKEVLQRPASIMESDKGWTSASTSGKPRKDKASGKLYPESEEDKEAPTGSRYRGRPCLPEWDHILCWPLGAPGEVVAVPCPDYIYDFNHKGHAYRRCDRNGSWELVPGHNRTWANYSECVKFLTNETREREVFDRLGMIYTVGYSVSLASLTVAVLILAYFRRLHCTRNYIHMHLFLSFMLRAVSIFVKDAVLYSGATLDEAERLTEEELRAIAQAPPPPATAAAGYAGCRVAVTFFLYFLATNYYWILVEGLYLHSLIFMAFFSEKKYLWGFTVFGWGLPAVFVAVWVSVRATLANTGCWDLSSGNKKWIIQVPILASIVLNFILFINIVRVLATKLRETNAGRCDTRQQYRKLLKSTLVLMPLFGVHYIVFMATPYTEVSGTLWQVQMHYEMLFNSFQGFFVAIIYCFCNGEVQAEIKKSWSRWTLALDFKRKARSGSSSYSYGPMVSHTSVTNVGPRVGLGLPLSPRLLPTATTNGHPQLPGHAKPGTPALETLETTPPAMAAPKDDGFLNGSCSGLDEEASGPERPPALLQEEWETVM
From the text: (§1) Data are means (±SEM) of n≥4 experiments, each performed in duplicate.

RG form of human PTHR-1 = biological target: T3, RG form of human PTHR-1 (Homo sapiens, UniProt Q03431); experiment: Radio-ligand competition binding to RG form of human PTHR-1 (COS-7 membranes, 125I-M-PTH(1-15) tracer, high affinity Gαs mutant)
T3 construct: expressed in transfected cells; host or cells: COS-7
T3 sequence (Q03431 27-593): T2 sequence (Q03431 27-593)
From the text: as §1

R^0 form of rat PTHR-1 = biological target: T4, R^0 form of rat PTHR-1 (Rattus norvegicus, UniProt P25961); experiment: Radio-ligand competition binding to R^0 form of rat PTHR-1; details: for R^0/RG: ratio of R^0 to RG IC50, rat PTHR-1; for affinity for the R^0 state of rPTHR-1, in words: compared with PTH(1-34)
T4 construct: expressed in transfected cells; host or cells: COS-7
T4 sequence (P25961 27-591): T1 sequence (P25961 27-591)
From the text: as §1

RG form of rat PTHR-1 = biological target: T5, RG form of rat PTHR-1 (Rattus norvegicus, UniProt P25961); experiment: Radio-ligand competition binding to RG form of rat PTHR-1
T5 construct: expressed in transfected cells; host or cells: COS-7
T5 sequence (P25961 27-591): T1 sequence (P25961 27-591)
From the text: as §1

[1] = Table 2, read-out: R^0 IC50, nM, Binding (rPTHR-1)
[2] = Table 5, rat PTHR-1, mean ± SEM, read-out: R^0 -log (IC50) (converted)
[3] = Table 2, read-out: RG IC50, nM, Binding (rPTHR-1)

SMILES | AUC-on (rPTHR-1) | AUC-washout (rPTHR-1) | cAMP response PTH2R/PTH1R (PTH2R/PTH1R; Table 16) | cAMP response PTH1R/PTH2R (PTH2R/PTH1R) | IC50 (R^0 form of human PTHR-1) [nM] | R^0/RG (R^0 form of human PTHR-1) | affinity for the R^0 state of hPTHR-1, in words (R^0 form of human PTHR-1) | IC50 (RG form of human PTHR-1) [nM] | IC50 (R^0 form of rat PTHR-1; [1]) [nM] | IC50 (R^0 form of rat PTHR-1; [2]) [nM] | R^0/RG (R^0 form of rat PTHR-1; Table 5) | affinity for the R^0 state of rPTHR-1, in words (R^0 form of rat PTHR-1) | IC50 (RG form of rat PTHR-1; [3]) [nM] | AUC Ratio (rPTHR-1) | cAMP response following washout, in words (rPTHR-1) | IC50 (R^0 form of human PTHR-1; Table 1, COS-7 membranes, 125I-PTH(1-34) tracer, GTPγS, read-out: R^0 IC50, nM, Binding (hPTHR-1)) [nM] | IC50 (RG form of human PTHR-1; Table 1, 125I-M-PTH(1-15) tracer, Gαs mutant, read-out: RG IC50, nM, Binding (hPTHR-1)) [nM] | IC50 (RG form of rat PTHR-1; Table 5, rat PTHR-1, mean ± SEM, read-out: RG -log (IC50) (converted)) [nM]
CC[C@H](C)[C@H](NC(=O)[C@H](CCC(=O)O)NC(=O)[C@H](CO)NC(=O)[C@@H](NC(=O)[C@@H](N)CO)C(C)C)C(=O)N[C@@H](CCC(N)=O)C(=O)N[C@@H](CC(C)C)C(=O)N[C@@H](CCSC)C(=O)N[C@@H](Cc1cnc[nH]1)C(=O)N[C@@H](CC(N)=O)C(=O)N[C@@H](CC(C)C)C(=O)NCC(=O)N[C@@H](CCCCN)C(=O)N[C@@H](Cc1cnc[nH]1)C(=O)N[C@@H](CC(C)C)C(=O)N[C@@H](CC(N)=O)C(=O)N[C@@H](CO)C(=O)N[C@@H](CCSC)C(=O)N[C@@H](CCC(=O)O)C(=O)N[C@@H](CCCN=C(N)N)C(=O)N[C@H](C(=O)N[C@@H](CCC(=O)O)C(=O)N[C@@H](Cc1c[nH]c2ccccc12)C(=O)N[C@@H](CC(C)C)C(=O)N[C@@H](CCCN=C(N)N)C(=O)N[C@@H](CCCCN)C(=O)N[C@@H](CCCCN)C(=O)N[C@@H](CC(C)C)C(=O)N[C@@H](CCC(N)=O)C(=O)N[C@@H](CC(=O)O)C(=O)N[C@H](C(=O)N[C@@H](Cc1cnc[nH]1)C(=O)N[C@@H](CC(N)=O)C(=O)N[C@@H](Cc1ccccc1)C(=O)O)C(C)C)C(C)C [PTH(1-34), reference compound] | 92,000 ± 34,000 | 100,000 ± 25,000 | 1.1 | 0.9 |  |  |  |  |  |  |  |  |  |  |  |  |  | 
CC[C@H](C)[C@H](NC(=O)[C@H](CCC(=O)O)NC(=O)[C@H](CO)NC(=O)[C@@H](NC(=O)[C@@H](N)CO)C(C)C)C(=O)N[C@@H](CCC(N)=O)C(=O)N[C@@H](CC(C)C)C(=O)N[C@@H](CCSC)C(=O)N[C@@H](Cc1cnc[nH]1)C(=O)N[C@@H](CC(N)=O)C(=O)N[C@@H](CC(C)C)C(=O)NCC(=O)N[C@@H](CCCCN)C(=O)N[C@H](CC(=O)N[C@@H](CC(C)C)C(=O)N[C@@H](CC(N)=O)C(=O)N[C@@H](CO)C(=O)N[C@@H](CCSC)CC(=O)N[C@@H](CCC(=O)O)C(=O)N[C@@H](CCCNC(=N)N)C(=O)N[C@H](C(=O)N[C@@H](CCC(=O)O)CC(=O)N[C@@H](Cc1c[nH]c2ccccc12)C(=O)N[C@@H](CC(C)C)C(=O)N[C@@H](CCCNC(=N)N)C(=O)N[C@@H](CCCCN)CC(=O)N[C@@H](CCCCN)C(=O)N[C@@H](CC(C)C)C(=O)N[C@@H](CCC(N)=O)C(=O)N[C@@H](CC(=O)O)CC(=O)N[C@H](C(=O)N[C@@H](Cc1cnc[nH]1)C(=O)N[C@@H](CC(N)=O)C(=O)N[C@H](CC(N)=O)Cc1ccccc1)C(C)C)C(C)C)Cc1c[nH]c2ccccc12 [D6] | 100,000 ± 36,000 | 130,000 ± 37,000 |  | 33 | 2 | 31 | comparably to PTH(1-34) | 0.065 | 6.1 | 6.03 | 8 | somewhat weaker affinity | 0.81 | 1.50 ± 0.35 | comparable to that of PTH(1-34) |  |  | 
CC[C@H](C)[C@H](NC(=O)[C@H](CCC(=O)O)NC(=O)[C@H](CO)NC(=O)[C@@H](NC(=O)[C@@H](N)CO)C(C)C)C(=O)N[C@@H](CCC(N)=O)C(=O)N[C@@H](CC(C)C)C(=O)N[C@@H](CCSC)C(=O)N[C@@H](Cc1c[nH]cn1)C(=O)N[C@@H](CC(N)=O)C(=O)N[C@@H](CC(C)C)C(=O)NCC(=O)N[C@@H](CCCCN)C(=O)N[C@@H](Cc1c[nH]cn1)C(=O)N[C@@H](CC(C)C)C(=O)N[C@@H](CC(N)=O)CC(=O)N[C@@H](CO)C(=O)N[C@@H](CCSC)C(=O)N[C@@H](CCC(=O)O)C(=O)N[C@@H](CCCNC(=N)N)CC(=O)N[C@H](C(=O)N[C@@H](CCC(=O)O)C(=O)N[C@@H](Cc1c[nH]c2ccccc12)C(=O)N[C@H](CC(=O)N[C@@H](CCCNC(=N)N)C(=O)N[C@@H](CCCCN)C(=O)N[C@@H](CCCCN)C(=O)N[C@H](CC(=O)N[C@@H](CCC(N)=O)C(=O)N[C@@H](CC(=O)O)C(=O)N[C@H](C(=O)N[C@@H](CCC(N)=O)CC(=O)N[C@@H](CC(N)=O)C(=O)N[C@@H](Cc1ccccc1)C(N)=O)C(C)C)CC(C)C)CC(C)C)C(C)C [B5] | 130,000 ± 50,000 | 84,000 ± 23,000 |  | 43 |  | 225 | an order of magnitude more weakly |  | 65 | 66.1 | 15 | significantly weaker affinity | 4.2 | 0.80 ± 0.16 | short-lived cAMP response | 19 | 0.086 | 4.27
